These results are taken from publication PMC6792352, “Limited Chemical Structural Diversity Found to Modulate Thyroid Hormone Receptor in the Tox21 Chemical Library” (Environmental Health Perspectives, 2019).

The structures appear in SMILES notation. Structures can show the parent of a compound that is named as a salt. Positions of bridges follow the written chain, without caps; N, C: chain ends. Residues, ends and D or L forms follow the SMILES beside them. Some results are limits rather than exact numbers.

A short description of this series: in vitro. The settings on record: rat, gh3-tre-luc cells.

By CC50 is commonly meant the concentration that lowers cell viability or growth by half. For the molecule `Nc1ccccc1C(=O)O` [Anthranilic acid], the CC50 at 24 h (AC50 (uM) modified / 1000, Tox21_110001=Tox21_111095, viability, 1 nM T3 present, 24 h) is above 50 µM and the CC50 at 24 h (AC50 (uM) modified / 1000, Tox21_110001=Tox21_200703, viability, 1 nM T3 present, 24 h) is above 90 µM. For `CC(C)(C)c1ccc(CSc2cnn(C(C)(C)C)c(=O)c2Cl)cc1` [Pyridaben], the CC50 at 24 h (AC50 (uM) modified / 1000) is 47.4 µM. Under “AC50 (uM) modified / 1000, Tox21_110001=Tox21_300608, viability, 1 nM T3 present, 24 h”, `O=C(O)C(F)(F)C(F)(F)C(F)(F)C(F)(F)C(F)(F)C(F)(F)C(F)(F)C(F)(F)C(F)(F)F` [Perfluorodecanoic acid] had a CC50 at 24 h above 90 µM.

For `CCCCN(CCCC)SN(C)C(=O)Oc1cccc2c1OC(C)(C)C2` [Carbosulfan], the CC50 at 24 h runs as follows: (AC50 (uM) modified / 1000, Tox21_110001=Tox21_202336, viability, 1 nM T3 present, 24 h) above 90 µM; (AC50 (uM) modified / 1000, Tox21_110001=Tox21_300473, viability, 1 nM T3 present, 24 h) 24.2 µM. `CC1CC(=O)O1` (stereo not drawn) [beta-Butyrolactone] came in with a CC50 at 24 h (AC50 (uM) modified / 1000) above 100 µM. Turning to `Nc1nc(N)nc(-c2ccccc2)n1` [6-Phenyl-1,3,5-triazine-2,4-diamine], the CC50 at 24 h (AC50 (uM) modified / 1000) is above 90 µM. In turn, `OCCSSCCO` [2-Hydroxyethyl disulfide] returned a CC50 at 24 h (AC50 (uM) modified / 1000, Tox21_110001=Tox21_302181, viability, 1 nM T3 present, 24 h) above 90 µM. Where the note is “AC50 (uM) modified / 1000”, `COC(=O)C(CN)c1c[nH]c2ccc(OC)cc12` (stereo not drawn) [Indorenate hydrochloride] displayed a 50% cytotoxic concentration (CC50) at 24 h above 50 µM. Still for that read-out and setting: in the case of `N#Cc1ccc(C2CCCc3cncn32)cc1` (stereo not drawn) [Fadrozole hydrochloride] it was above 40 µM. `C=C(c1ccc(C(=O)O)cc1)c1cc2c(cc1C)C(C)(C)CCC2(C)C` [Bexarotene] returned a CC50 at 24 h (AC50 (uM) modified / 1000) of 16.1 µM. In the case of `CCOc1ccc(C(C)(C)COCc2cccc(Oc3ccccc3)c2)cc1` [Etofenprox], the CC50 at 24 h (AC50 (uM) modified / 1000) is above 90 µM. Still for that read-out and setting: in the case of `CN(C)C(=O)NC1(c2ccccc2)CCN(CC[C@@]2(c3ccc(F)c(F)c3)CN(C(=O)c3ccccc3)CCO2)CC1` [SR144190] it was 55.6 µM; in that of `CC(C)[C@@H](Nc1ccc(C(F)(F)F)cc1Cl)C(=O)OC(C#N)c1cccc(Oc2ccccc2)c1` (stereo partly drawn) [tau-Fluvalinate], above 90 µM; in that of `CC1CS(=O)(=O)CCN1/N=C/c1ccc([N+](=O)[O-])o1` (stereo not drawn) [Nifurtimox], 8.46 µM. `C[C@]12CCC(=O)C(O)=C1CC[C@@H]1[C@@H]2CC[C@]2(C)C(=O)CC[C@@H]12` [4-Hydroxyandrostenedione]: the CC50 at 24 h runs as follows: (AC50 (uM) modified / 1000, Tox21_110001=Tox21_112111, viability, 1 nM T3 present, 24 h) above 50 µM; (AC50 (uM) modified / 1000, Tox21_110001=Tox21_302286, viability, 1 nM T3 present, 24 h) above 90 µM. Turning to `CO/N=C(\C(=O)N[C@@H]1C(=O)N2C(C(=O)O)=C(CSc3nc(=O)c(=O)[nH]n3C)CS[C@H]12)c1csc(N)n1` [Ceftriaxone disodium trihydrate], the CC50 at 24 h (AC50 (uM) modified / 1000) is above 50 µM. Still for that read-out and setting: to `O=S(=O)(c1ccc(O)cc1)c1ccc(O)cc1` [4,4'-Sulfonyldiphenol] belongs above 90 µM; to `CC(C)C1OCCN1CCOC(=O)NCCCCCCNC(=O)OCCN1CCOC1C(C)C` (stereo not drawn) [Bis{2-[2-(propan-2-yl)-1,3-oxazolidin-3-yl]ethyl} hexane-1,6-diylbiscarbamate], above 90 µM. On the same count and under the same terms, to `CC(=O)N[C@H]1[C@H]([C@H](O)[C@H](O)CO)OC(C(=O)O)=C[C@@H]1N=C(N)N` [Zanamivir] belongs above 50 µM. For `Nc1ccc2c(c1)Cc1ccccc1-2` [2-Aminofluorene], for the setting “AC50 (uM) modified / 1000, Tox21_110001=Tox21_202971, viability, 1 nM T3 present, 24 h”, the CC50 at 24 h was above 90 µM. Consider `CO[C@@]1(NC(=O)[C@H](C(=O)O)c2ccc(O)cc2)C(=O)N2C(C(=O)O)=C(CSc3nnnn3C)CO[C@@H]21` [Moxalactam disodium], for which, for the setting “AC50 (uM) modified / 1000”, the CC50 at 24 h is above 20 µM.

As for `CCc1ccc(C)cc1` [4-Ethyltoluene], where the note is “AC50 (uM) modified / 1000”, the CC50 at 24 h was above 90 µM. For the setting “AC50 (uM) modified / 1000”, `O=C(O)c1cc(-c2ccccc2)nc2ccccc12` [Cinchophen] displayed a CC50 at 24 h above 50 µM.

`CN(C1CCCCC1)C1CCCCC1` [N-Cyclohexyl-N-methylcyclohexanamine] returned a half-maximal cytotoxic concentration (CC50) at 24 h (AC50 (uM) modified / 1000) above 90 µM. `CC(C)(O)C(=O)O` [2-Hydroxyisobutyric acid] returned a CC50 at 24 h (AC50 (uM) modified / 1000) above 90 µM. Where the note is “AC50 (uM) modified / 1000”, `Cc1ccc(Cl)c(N)c1Cl` [2,6-Dichloro-3-methylaniline] yielded a CC50 at 24 h above 90 µM. `CN(C)Cc1ccccc1` [N,N-Dimethylbenzylamine]: where the note is “AC50 (uM) modified / 1000”, the CC50 at 24 h was above 50 µM. Still for that read-out and setting: in the case of `CCc1oc2ccccc2c1C(=O)c1cc(Br)c(O)c(Br)c1` [Benzbromarone] it was 39.4 µM. On the same count and under the same terms, in the case of `C[C@@]12CCC[C@H]1[C@@H]1CC[C@H]3C[C@@H](O)CC[C@]3(C)[C@H]1CC2` [5alpha-Androstan-3beta-ol] it was above 50 µM. Consider `NC(=O)Nc1ccc(Cl)cc1` [4-Chlorophenylurea], for which the CC50 at 24 h (AC50 (uM) modified / 1000) was above 90 µM. The same measure, in the same setting: to `CCC(C)OC(=O)c1ccc(O)cc1` (stereo not drawn) [sec-Butylparaben] belongs above 90 µM. On the same count and under the same terms, to `C[C@H](O)[C@H](O)[C@H]1CNc2nc(N)[nH]c(=O)c2N1` [(6R)-Tetrahydrobiopterin dihydrochloride] belongs above 50 µM; to `COCCC#N` [3-Methoxypropionitrile], above 90 µM; to `CCOC(N)=O` [Urethane], above 100 µM. `CCOC(=O)[C@H](CCc1ccccc1)N[C@@H](C)C(=O)N1CC2(C[C@H]1C(=O)O)SCCS2` [Spirapril hydrochloride] displayed a CC50 at 24 h (AC50 (uM) modified / 1000) above 50 µM.

`NCCCC[C@H](NC(=O)[C@@H]1CCCN1C(=O)[C@@H]1CSSC[C@H](NC(=O)CNC(=O)CNC(=O)CN)C(=O)N[C@@H](Cc2ccc(O)cc2)C(=O)N[C@@H](Cc2ccccc2)C(=O)N[C@@H](CCC(N)=O)C(=O)N[C@@H](CC(N)=O)C(=O)N1)C(=O)NCC(N)=O` [Terlipressin] (H-GGGCYFQNCPKG-NH2; disulfide 4-9) gave a CC50 at 24 h (AC50 (uM) modified / 1000) above 50 µM. Same read-out and setting: in the case of `C=C(C)C(=O)OCCOCCOC(=O)C(=C)C` [Di(ethylene glycol) dimethacrylate] it was above 90 µM. As for `COP(=O)(OC)C(O)C(Cl)(Cl)Cl` (stereo not drawn) [Trichlorfon], the cytotoxic concentration (CC50) at 24 h is, setting by setting: (AC50 (uM) modified / 1000, Tox21_110001=Tox21_110843, viability, 1 nM T3 present, 24 h) above 50 µM; (AC50 (uM) modified / 1000, Tox21_110001=Tox21_201607, viability, 1 nM T3 present, 24 h) above 90 µM. As to `O=c1[nH]c(=O)n([C@H]2C[C@H](O)[C@@H](CO)O2)cc1F` [Floxuridine], the CC50 at 24 h (AC50 (uM) modified / 1000) is above 50 µM.

For the molecule `C[C@H]1C[C@H]2[C@@H]3CCC4=CC(=O)C=C[C@]4(C)[C@@]3(F)[C@@H](O)C[C@]2(C)[C@@]1(O)C(=O)CCl` [Clobetasol], the CC50 at 24 h (AC50 (uM) modified / 1000) was above 50 µM.

`CO/N=C(\C(=O)N[C@@H]1C(=O)N2C(C(=O)O)=C(Cn3nnc(C)n3)CS[C@H]12)c1csc(N)n1` [Cefteram] had a half-maximal cytotoxic concentration (CC50) at 24 h (AC50 (uM) modified / 1000) above 50 µM. Turning to `CNC(=O)N(C)c1nnc(C(C)(C)C)s1` [Tebuthiuron], the CC50 at 24 h (AC50 (uM) modified / 1000, Tox21_110001=Tox21_201451, viability, 1 nM T3 present, 24 h) was above 90 µM. `CC(C)(CC(=O)O)C(=O)O` [2,2-Dimethylbutanedioic acid] came in with a CC50 at 24 h (AC50 (uM) modified / 1000) above 90 µM. As for `COc1ccc(C(=O)Nc2ccccc2CCC2CCCCN2C)cc1` (stereo not drawn) [Encainide hydrochloride], the CC50 at 24 h (AC50 (uM) modified / 1000) is above 50 µM.

The molecule `COc1cc(S(=O)(=O)O)c(C)cc1N=Nc1c(O)ccc2cc(S(=O)(=O)O)ccc12` [Allura Red C.I.16035] displayed a CC50 at 24 h (AC50 (uM) modified / 1000) of 37.7 µM. Still for that read-out and setting: to `C=CC(C)(C)CC(=O)OC` [Methyl 3,3-dimethylpent-4-enoate] belongs above 90 µM; to `OCC(O)c1ccccc1` (stereo not drawn) [Styrene glycol], above 90 µM. Turning to `CCC(C(=O)NC(N)=O)c1ccccc1` (stereo not drawn) [Ethylphenylacetylurea], the CC50 at 24 h (AC50 (uM) modified / 1000) is above 90 µM. Take `CC1(C)CC(OC(=O)CCCCCCCCC(=O)OC2CC(C)(C)NC(C)(C)C2)CC(C)(C)N1` [Bis(2,2,6,6-tetramethyl-4-piperidyl) sebacate]: half-maximal cytotoxicity (AC50 (uM) modified / 1000) (CC50 at 24 h) was put at 1.55 µM. This lies in the single-digit micromolar range. Take `O=C(O)COC(=O)Cc1ccccc1Nc1c(Cl)cccc1Cl` [Aceclofenac]: the CC50 at 24 h (AC50 (uM) modified / 1000) was above 20 µM. On the same count and under the same terms, to `CCCCCCCC(=O)OCC(COC(=O)CCCCCCC)OC(=O)CCCCCCC` [Tricaprylin] belongs above 90 µM. `CCCCCCOC(=O)CC` [Hexyl propanoate] returned a CC50 at 24 h (AC50 (uM) modified / 1000) above 90 µM. Molecule `COc1ccc(CCC(C)=O)cc1` [4-(4-Methoxyphenyl)-2-butanone] displayed a CC50 at 24 h (AC50 (uM) modified / 1000) above 90 µM. The same measure, in the same setting: to `CC(C)c1ccccc1C(C)C` [Diisopropylbenzene] belongs 88.9 µM; to `CC(C)(C)CC(C)(C)N` [2,4,4-Trimethyl-2-pentanamine], above 90 µM; to `CCNc1cc(O)ccc1C` [3-Ethylamino-4-methylphenol], above 90 µM. On the same count and under the same terms, to `CC(=O)CC(c1ccc([N+](=O)[O-])cc1)c1c(O)c2ccccc2oc1=O` (stereo not drawn) [Acenocoumarol] belongs above 20 µM; to `C=CC(=O)NCOCC(C)C` [N-(Isobutoxymethyl)acrylamide], above 90 µM. In the case of `C[C@@H]1[C@H]2Cc3ccc(O)cc3[C@]1(C)CCN2C` [(-)-Metazocine fumarate (1:1)], for the setting “AC50 (uM) modified / 1000, Tox21_110001=Tox21_112855, viability, 1 nM T3 present, 24 h”, the CC50 at 24 h was above 200 µM. Take `COc1ccc(S(=O)(=O)N2C(=O)[C@@](c3ccccc3OC)(N3C[C@H](O)C[C@H]3C(=O)N(C)C)c3cc(Cl)ccc32)c(OC)c1` [Nelivaptan]: the CC50 at 24 h (AC50 (uM) modified / 1000) stood at 34.9 µM. This lies in the double-digit micromolar range. Same read-out and setting: in the case of `O=C(Cl)c1ccc([N+](=O)[O-])cc1` [4-Nitrobenzoyl chloride] it was above 90 µM. As for `CC1=C(C(=O)OC(C)C)C(c2cccc([N+](=O)[O-])c2)C(C(=O)OC2CN(C(c3ccccc3)c3ccccc3)C2)=C(N)N1` (stereo not drawn) [Azelnidipine], for the setting “AC50 (uM) modified / 1000”, the CC50 at 24 h is 4.41 µM.
